Like-named read-outs stand apart in the source and are kept apart here.
Legend:
HT-1080 = experiment: Ferroptosis inhibition, cell viability assay (CellTiter-Glo); assay type: cell-based, Human; conditions: for IC50: Homo sapiens; for cellular efficacy/toxicity window: cytotoxic IC50 versus ferroptosis inhibition IC50, 1080 min
Experimental: Cell lines: Human fibrosarcoma cell line HT-1080 and immortalized Mouse Embryonic Fibroblasts (MEF). MEFs were a gift from Daniel Krappmann, HT-1080 were purchased from ATCC and both cell lines were grown in Dulbecco's Modified Eagle's medium (Thermo Fisher Scientific, 41966-029) supplemented with 10% fetal bovine serum (FBS, Thermo Fisher Scientific), 1% Penicillin-Streptomycin (Thermo Fisher Scientific) and 1% nonessential amino acids (MEM NEAA, Thermo Fisher Scientific). Cells were grown at 37° C. and 5% CO2.
HT-1080 were seeded into 384-well plates (CulturPlates, PerkinElmer) with a density of 750 cells per well. After 24 h of growth, cells were treated with 10 or 12-point serial dilutions of compounds in indicated concentrations for 18 h. Viability was detected by using CellTiter-Glo® 2.0 Regent (Promega) according to the manufacturer's instruction and luminescence was read out in an EnVison 2104 Multilabel plate reader (PerkinElmer).

[1] = Cytotoxicity, cell viability assay; assay type: cell-based, Human; conditions: human, ht-1080 cells
Experimental: After 24 h of growth, cells were treated with 10 or 12-point serial dilutions of compounds in indicated concentrations for 18 h.

[2] = system: Mouse Embryonic Fibroblasts (MEF); experiment: Necroptosis assay, TNFα + zVAD-FMK + LCL161, cell viability; assay type: cell-based
Experimental: For detecting necroptosis, MEF were treated with TNFα, zVAD-FMK and LCL161 before addition of Seratrodast or Necrostatin-1. Cell viability was measured after 18 hours by adding CellTiter-Glo® 2.0 Reagent (Promega) according to the manufacturer's instruction and luminescence was read out.

[3] = HT-1080, based on the assays of example 1, read-out: IC50 (Ferroptosis inhibition)
[4] = * = signal quenching at higher concentration, toxicity might be less than indicated, read-out: cytotoxic IC50
[5] = HT-1080, read-out: IC50 (Ferroptosis inhibition)

Row | IC50 (HT-1080; [3]) [nM] | SMILES | CC50 at 18 h [1, 4] [nM] | cellular efficacy/toxicity window (HT-1080) | Necroptosis inhibition [2] | IC50 (HT-1080; [5]) [nM] | CC50 at 18 h [1] [nM]
1 | > 100000 | O=C1C=C(Nc2ccccc2C(=O)O)C(=O)C=C1Nc1ccccc1C(=O)O [QFerr26, 2,2-(3,6-dioxo-1,4-cyclohexadiene-1,4-diyl-diimino)dibenzoic acid] | 35400 | – | – | – | –
2 | 27 | CC(=O)c1ccc(NC2=C(Cl)C(=O)c3ccccc3C2=O)cc1 [iQFerr02, NQ301] | 759 | 28-fold | no | – | –
3 | – | CC(C)=CC[C@@H](O)C1=CC(=O)c2c(O)ccc(O)c2C1=O [iQFerr03, Shikonin] | 269 | – | – | > 1000 | –
4 | – | CC(C)=CC[C@H](O)C1=CC(=O)c2c(O)ccc(O)c2C1=O [iQFerr04, Alkannin] | 573 | – | – | > 1000 | –
5 | – | CC(C)=CCCC1=CC(=O)c2c(O)ccc(O)c2C1=O [iQFerr05, Deoxyshikonin] | 1620 | 6-fold | – | 287 | –
6 | 30 | COC1=C(OC)C(=O)C(CC=C(C)C)=C(C)C1=O [iQFerr07, Coenzyme Q1] | 10000 | 333-fold | – | – | –
7 | – | O=C(O)c1ccc2c(c1)C(=O)c1ccccc1C2=O [iQFerr08, Anthraquinone-2-carboxyclic acid] | – | – | – | 13000 | > 100000
8 | 63 | CC(=O)c1cccc(NC2=C(Cl)C(=O)c3ccccc3C2=O)c1 [iQFerr09, 2-(3-acetylanilino)-3-chloro-1,4-naphtoquinone] | 810 | 13-fold | – | – | –
9 | 8 | CCc1ccc(NC2=C(Cl)C(=O)c3ccccc3C2=O)cc1 [iQFerr10, 2-chloro-3-(4-ethylanilino)-1,4-naphtoquinone] | 844 | 105-fold | – | – | –
10 | 6 | O=C1C(Cl)=C(Nc2ccc(O)cc2)C(=O)c2ccccc21 [iQFerr11, 2-chloro-3-(4-hydroxy-phenylamino)-1,4-naphtoquinone] | 293 | 48-fold | – | – | –
11 | 6 | COc1ccc(NC2=C(Cl)C(=O)c3ccccc3C2=O)cc1 [iQFerr12, 2-chloro-3-(4-methoxyanilino)-1,4-naphtoquinone] | 3520 | 586-fold | – | – | –
12 | 3 | Cc1ccc(NC2=C(Cl)C(=O)c3ccccc3C2=O)cc1 [iQFerr13, 2-chloro-3-(4-methylanilino)-1,4-naphtoquinone] | 380 | 126-fold | – | – | –
13 | 1360 | O=C(O)CCCNC1=C(Cl)C(=O)c2ccccc2C1=O [iQFerr15, 4-[(3-chloro-1,4-dioxo-1,4-dihydronaphthalen-2-yl)amino]butanoic acid] | 215000 | 159-fold | – | – | –
14 | 4.5 | O=C1C(Cl)=C(Nc2ccccc2)C(=O)c2ccccc21 [iQFerr16, 2-anilino-3-chloro-1,4-naphtoquinone] | 279 | 62-fold | – | – | –
15 | 6.1 | O=C1C(Cl)=C(Nc2ccc(F)cc2)C(=O)c2ccccc21 [iQFerr17, 2-chloro-3-(4-fluoroanilino)-1,4-naphtoquinone] | 397 | 65-fold | – | – | –
16 | 94.1 | O=C(O)c1ccc(NC2=C(Cl)C(=O)c3ccccc3C2=O)cc1 [iQFerr18, 4-[(3-chloro-1,4-dioxo-1,4-dihydronaphthalen-2-yl)amino]benzoic acid] | 2550 | 27-fold | – | – | –
17 | 32.2 | CN(C)c1ccc(NC2=CC(=O)c3ccccc3C2=O)cc1 [iQFerr19, 2-[4-(dimethylamino)-anilino]-1,4-naphtoquinone] | 5850 | 182-fold | – | – | –
18 | 43 | CCOc1ccc(NC2=CC(=O)c3ccccc3C2=O)cc1 [iQFerr21, 2-(4-ethoxyanilino)-1,4-naphtoquinone] | 8570 | 199-fold | – | – | –
19 | 15.6 | Cc1ccc(NC2=CC(=O)c3ccccc3C2=O)cc1 [iQFerr22, 2-(4-methylanilino)-1,4-naphtoquinone] | 5500 | 354-fold | – | – | –

Row | IC50 (HT-1080; [3]) [nM] | SMILES | CC50 at 18 h [1, 4] [nM] | cellular efficacy/toxicity window (HT-1080) | Necroptosis inhibition [2] | IC50 (HT-1080; [5]) [nM] | CC50 at 18 h [1] [nM]
20 | 3480 | O=C(O)c1ccccc1NC1=CC(=O)c2c(O)cccc2C1=O [iQFerr23] | 16400 | 5-fold | – | – | –
21 | > 100000 | O=C1c2ccccc2C(=O)c2c1c(-c1ccccc1)nn2-c1ccccc1 [iQFerr24, 1,3-diphenyl-1H-benzo-f-indazole-4,9-dione] | – | – | – | – | –
22 | 176 | Cc1ccc(NC2=CC(=O)C=CC2=O)c(C)c1 [iQFerr25, 2-(2,4-dimethylanilino)-benzo-1,4-quinone] | 759 | 5-fold | – | – | –
23 | 493 | CCOc1ccc(NC2=CC(=O)C=CC2=O)cc1 [iQFerr27, 2-(4-ethoxyanilino)-benzo-1,4-quinone] | 2160 | 4-fold | – | – | –
24 | 32.4 | O=C1C=C(Cc2ccc(F)cc2)C(=O)c2ccccc21 [iQFerr28, 2-(4-fluorobenzyl)-1,4-naphtoquinone] | 1450 | 45-fold | – | – | –
25 | 3.91 | O=C1C=C(C(c2ccccc2)c2ccccc2)C(=O)c2ccccc21 [iQFerr29, 2-diphenylmethyl-1,4-naphtoquinone] | 4990 | 1277-fold | no | – | –
26 | 38.4 | Cc1ccc(CC2=CC(=O)c3ccccc3C2=O)cc1 [iQFerr30, 2-(4-methylbenzyl)-1,4-naphtoquinone] | 5060 | 132-fold | – | – | –
27 | 1060 | COc1ccc(CC2=CC(=O)c3ccccc3C2=O)cc1 [iQFerr31, 2-(4-methoxybenzyl)-1,4-naphtoquinone] | 8700 | 8-fold | – | – | –
28 | 39800 | Cc1ccc(C(C2=C(O)C(=O)c3ccccc3C2=O)c2ccccc2)cc1 (stereo not shown) [iQFerr32, 2-hydroxy-3-[(4-methylphenyl)phenyl-methyl]-1,4-naphtoquinone] | 34200 | – | – | – | –
29 | 7580 | CN(C)c1ccc(C(C2=C(O)C(=O)c3ccccc3C2=O)c2ccccc2)cc1 (stereo not shown) [iQFerr33, 2-[(4-dimethylamino-phenyl)phenylmethyl]-3-hydroxy-1,4-naphtoquinone] | 71800 | 9-fold | – | – | –
30 | – | O=C1C(O)=C(C(c2ccccc2)c2ccc(F)cc2)C(=O)c2ccccc21 (stereo not shown) [iQFerr34, 2-[(4-fluorophenyl)-phenylmethyl]-3-hydroxy 1,4-naphtoquinone] | 35000 | – | – | 71400 | –
31 | 7.36 | CC(=O)Nc1ccc(NC2=C(Cl)C(=O)c3ccccc3C2=O)cc1 [iQFerr36, N-{4-[(3-chloro-1,4-dioxo-1,4-dihydronaphthalen-2 yl)amino]phenyl} acetamide] | 564 | 77-fold | – | – | –
32 | 15.4 | Cc1ccc(NC2=CC(=O)c3ccccc3C2=O)c(C)c1 [iQFerr37, 2-[(2,4-dimethylphenyl)amino]-1,4-dihydronaphthalene-1,4-dione] | 48800 | 3162-fold | – | – | –
33 | 189 | Cc1ccc(N(CCCC(N)=O)C2=CC(=O)c3ccccc3C2=O)c(C)c1 [iQFerr40, 4-[(2,4-dimethylphenyl)(1,4-dioxo-1,4-dihydronaphthalen-2-yl)amino]butanamide] | 230 | 1,2-fold | – | – | –
34 | 463 | Cc1ccc(N(CCCC(=O)O)C2=CC(=O)c3ccccc3C2=O)c(C)c1 [iQFerr42, 4-[(2,4-dimethylphenyl)(1,4-dioxo-1,4-dihydronaphthalen-2-yl)amino]butanoic acid] | 219 | 0,47-fold | – | – | –
35 | 30.9 | CC(=O)Nc1ccc(NC2=C(C(F)(F)F)C(=O)c3ccccc3C2=O)cc1 [iQFerr44, N-(4-{[1,4-dioxo-3-(trifluoromethyl)-1,4-dihydronaphthalen-2-yl]amino}phenyl) acetamide] | 58800 | 1901-fold | no | – | –
36 | 1.56 | CC1=C(Nc2ccc(C)cc2)C(=O)c2ccccc2C1=O [iQFerr45, 2-methyl-3-[(4-methylphenyl)amino]-1,4-dihydronaphthalene-1,4-dione] | 40000 | 25634-fold | – | – | –
37 | 22.8 | CC(=O)Nc1ccc(N(CCCCCC(N)=O)C2=CC(=O)c3ccccc3C2=O)cc1 [iQFerr49, 6-[(1,4-dioxo-1,4-dihydronaphthalen-2-yl)(4-acetamidophenyl)amino] hexanamide] | 112000 | 4895-fold | – | – | –

— patent US20260283988A1, “FERROPTOSIS INHIBITORS” (priority 2023, published 2026)
